Several values for one entry are separate records, joined by “and”; a condition that tells them apart may be missing. Equal entries are not always repeated.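 Each compound was tested at five concentrations against cells in 96-well plates for 48 hours. At the GI50, growth is halved. TGI is the concentration that stops growth completely.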
Key:
Assay in all cases: NCI anticancer screen, dose series, 48 h
KM12 colon = tested on: KM12 colon
CAKI-1 renal = tested on: CAKI-1 renal
HOP-62 NSCLC = tested on: HOP-62 NSCLC
RXF 393 renal = tested on: RXF 393 renal
MDA-MB-435 = tested on: MDA-MB-435
K-562 leukemia = tested on: K-562 leukemia
SK-MEL-2 melanoma = tested on: SK-MEL-2 melanoma
A498 renal = tested on: A498 renal
SNB-75 CNS = tested on: SNB-75 CNS
NCI-H460 lung = tested on: NCI-H460 lung

Structure (SMILES)	GI50 (KM12 colon)	TGI (KM12 colon)	GI50 (CAKI-1 renal)	TGI (CAKI-1 renal)	GI50 (HOP-62 NSCLC)	TGI (HOP-62 NSCLC)	GI50 (RXF 393 renal)	TGI (RXF 393 renal)	GI50 (MDA-MB-435)	TGI (MDA-MB-435)	GI50 (K-562 leukemia)	TGI (K-562 leukemia)	GI50 (SK-MEL-2 melanoma)	TGI (SK-MEL-2 melanoma)	GI50 (A498 renal)	TGI (A498 renal)	GI50 (SNB-75 CNS)	TGI (SNB-75 CNS)	GI50 (NCI-H460 lung)	TGI (NCI-H460 lung)
Fc1c[c-]c(-c2ccccn2)c(F)c1.[CH3-].[Pt+2].c1ccc(P(C[PH+](c2ccccc2)c2ccccc2)c2ccccc2)cc1	0.421 µM	1.25 µM	0.869 µM	1.96 µM	0.932 µM	3.71 µM	0.702 µM	1.49 µM	0.795 µM	2.08 µM	0.365 µM	6.95 µM	0.695 µM	1.89 µM	0.712 µM	1.58 µM	0.967 µM	4.14 µM	0.591 µM	1.54 µM
COc1cc([C@H]2c3[nH]c4ccccc4c3C[C@H]3COC(=O)N32)cc(OC)c1O		20.7 µM		46.8 µM		34.2 µM		1.51 µM		> 100 µM		> 90.3 µM				20.9 µM		3.2 µM		23.2 µM
COc1ccc(-c2cc(/C=C/C(=O)c3cc(OC)c(OC)c(OC)c3)[nH]n2)cc1OC	0.78 µM	2.27 µM			1.45 µM	3.59 µM	1.53 µM	3.16 µM	1.78 µM	4.05 µM	0.731 µM	9.71 µM	2.69 µM	7.7 µM	1.46 µM	4.99 µM	1.31 µM	3.77 µM	1.04 µM	3.6 µM
NC(=O)c1cc(I)ccc1NC(=O)COc1ccccc1	0.328 µM	> 100 µM	0.547 µM	> 100 µM	0.598 µM	12.4 µM	0.453 µM	4.53 µM	0.107 µM	0.359 µM	0.214 µM	24.2 µM	0.566 µM	16.3 µM	1.27 µM	7.26 µM	0.316 µM	4.49 µM	0.433 µM	> 100 µM
O=C(O)C1C(C(=O)O)C2(Cl)C(Cl)=C(Cl)C1(Cl)C2(Cl)Cl.[Cd] (centres undefined)	16.9 µM	37.5 µM	17.8 µM	34.4 µM	22.7 µM	48.6 µM	13.7 µM	30.5 µM	7.61 µM	25.2 µM	16.3 µM	51.8 µM	9.22 µM	26.8 µM	> 100 µM	> 100 µM	10.7 µM	26.4 µM	3.71 µM	18 µM
C=CC(=O)Nc1cccc(Nc2nc(Nc3ccc(OCCOC(F)F)cc3)ncc2F)c1	3.57 µM	17.2 µM	1.28 µM	10.1 µM	2.38 µM	17.2 µM	1.09 µM	4.42 µM	2.21 µM	7.22 µM	3.07 µM	> 100 µM	1.8 µM	6.82 µM	0.408 µM	1.83 µM	0.848 µM	5 µM	2.74 µM	35.6 µM
Cc1ccc(/C=C2\CNC/C(=C\c3ccc(C)cc3)C2=O)cc1	0.399 µM	1.55 µM and 3.32 µM	1.63 µM	4.49 µM and 7.54 µM	3.26 µM	9.75 µM and 7.33 µM	2.24 µM and 1.81 µM	3.84 µM and 3.29 µM		19.9 µM	1.14 µM	2.68 µM	1.9 µM		1.63 µM	3.36 µM and 3.56 µM	8.74 µM	68.1 µM	1.21 µM	2.62 µM and 9.51 µM
CC[C@@]1(O)C(=O)OCc2c1cc1n(c2=O)Cc2cc3c(N)cccc3nc2-1	0.0151 µM	11.6 µM	0.00849 µM	0.858 µM	0.00637 µM	0.0489 µM	0.0893 µM	0.34 µM		2.16 µM	0.0277 µM	> 100 µM		1.99 µM	0.0896 µM	0.611 µM		0.0711 µM and 0.231 µM	0.00439 µM	0.462 µM
O=c1[nH]c2cc(Cl)c(Cl)cc2n2cc3ccccc3c12	17.3 µM	31.1 µM	20.6 µM	34.9 µM			17.4 µM	31.2 µM	16.9 µM	30.5 µM			24.9 µM	54 µM	15.8 µM	29.9 µM	21.6 µM	53.3 µM	18.8 µM	32.8 µM
CC1(C)C2CCC13C(=O)C1OC3(C2)C2C(=O)c3c(O)cccc3C(=O)C12 (centres undefined)	2.6 µM	14.9 µM	1.4 µM	2.95 µM	16.1 µM	31.7 µM	1.56 µM	3.5 µM	0.818 µM	2.5 µM	0.703 µM	1.79 µM	3.69 µM	> 100 µM	1.89 µM	3.49 µM	7.28 µM	22.3 µM	3.75 µM	21.2 µM
CCCCCCCCCCCCCCCCS(=O)(=O)c1ccc(NN)cc1		> 10 µM		> 10 µM		> 10 µM		> 10 µM		> 10 µM		> 10 µM		> 10 µM		> 10 µM				> 10 µM
O=C(Nc1ccccc1O)c1ccc(CNC(=O)c2ccsc2Nc2ccnc(C(F)(F)F)c2)cc1	2.84 µM	11.9 µM	2.62 µM	9.96 µM	7.84 µM	> 100 µM	1.93 µM	4.82 µM	2.19 µM	6.54 µM	1.62 µM	> 100 µM	2.1 µM	6.26 µM	0.787 µM	3.01 µM	2.57 µM	43.5 µM	2.38 µM	11.4 µM
COc1cc(O)c(C(C)=O)c(O)c1		> 100 µM				> 100 µM		> 100 µM		> 100 µM		> 100 µM		> 100 µM		> 100 µM		> 100 µM		> 100 µM
CCN(CC)CCOc1ccc(/C=C2\CC3C4CC=C5C[C@@H](OC(C)=O)CC[C@]5(C)C4CC[C@]3(C)C2=O)cc1OC (some centres undefined)	1.99 µM	4.18 µM	0.429 µM	2.52 µM	4.34 µM	16.8 µM	2.58 µM	7.77 µM	1.78 µM	3.58 µM	1.29 µM	23.6 µM	5.1 µM	> 100 µM	3.01 µM	11.6 µM	20.5 µM	58.1 µM		
O=C(O)Cn1ccnc1[N+](=O)[O-]		> 100 µM		> 100 µM		> 100 µM		> 100 µM		> 100 µM		> 100 µM		> 100 µM		> 100 µM		> 100 µM		> 100 µM
O=C(Nc1ccc(Cl)cc1)Nc1ccccc1CNc1nc(Nc2ccc(OCCN3CCCC3)cc2)ncc1Cl	1.04 µM	2.2 µM	7.44 µM	14 µM	1.28 µM	3.88 µM	0.898 µM	1.76 µM	0.935 µM	1.93 µM	1.16 µM	2.82 µM	8.99 µM	17.4 µM	5.22 µM	12.3 µM	2.1 µM	9.28 µM	0.936 µM	1.78 µM
COc1ccc2[nH]c(-c3ccccc3)cc2c1	73.8 µM	> 100 µM	> 100 µM	> 100 µM	> 100 µM	> 100 µM	> 100 µM	> 100 µM	> 100 µM	> 100 µM	86.8 µM	> 100 µM	> 100 µM	> 100 µM	20.8 µM	> 100 µM	> 100 µM	> 100 µM	> 100 µM	> 100 µM
O=C(Nc1cc(S(=O)(=O)c2ccc(Cl)cc2)ccc1Cl)c1cc(I)cc(I)c1O	14.2 µM	27.4 µM	20.3 µM	38.2 µM	18.6 µM	34.1 µM	15.1 µM	35.5 µM	17.4 µM	37.8 µM	16 µM	40.9 µM	16.6 µM	39.4 µM	15.3 µM	31.6 µM	19.7 µM	43.1 µM	15.2 µM	38.5 µM
COc1cc2cc(Oc3ccc(NC(=O)c4cccc5c4OCCO5)cc3)c(C)nc2cc1OC	4.39 µM	> 100 µM	14.2 µM	> 100 µM	9.13 µM	94.6 µM	8.81 µM	> 100 µM	7.05 µM	> 100 µM	4.81 µM	> 100 µM	32.9 µM	> 100 µM	2.06 µM	68.4 µM	4.06 µM	53.1 µM	8.36 µM	> 100 µM
Cc1cc(NC(=O)NC(=O)c2ccccc2N(C)C)ccc1Oc1ncc(Br)cn1		> 38 µM	0.588 µM and 0.402 µM	> 100 µM		57.9 µM	0.242 µM	0.698 µM and 6.37 µM		2.84 µM	0.21 µM	27.3 µM		> 46.4 µM		6.71 µM	0.11 µM	0.428 µM and 0.555 µM	0.343 µM	55.5 µM
CCOCNc1ccc(N2C(=O)/C(=C/c3ccc(N(CC)CC)cc3)N=C2c2ccccc2)cc1	5.44 µM	> 100 µM	12.5 µM	56.8 µM	12.6 µM	35.3 µM	4.23 µM	17.4 µM	69.1 µM	> 100 µM	2.87 µM	> 100 µM	13.7 µM	31 µM	35.4 µM	> 100 µM	16.2 µM	81.2 µM	2.86 µM	> 100 µM
CCC(=O)c1cc([N+](=O)[O-])c(Br)s1	11.6 µM	24.2 µM	1.66 µM	3.41 µM	2.25 µM	4.54 µM	1.88 µM	3.31 µM	4.77 µM	18.7 µM	2.16 µM	6.82 µM			17.3 µM	31.3 µM	10.4 µM	22.2 µM	6.17 µM	20.9 µM
Cc1ccc(-n2c3c(c4c(CN5CCOCC5)c(O)ccc42)CCc2ccccc2C3=O)cc1	> 100 µM	> 100 µM	94.1 µM	> 100 µM	> 100 µM	> 100 µM	25.9 µM	> 100 µM	29.6 µM	> 100 µM	25.8 µM	> 100 µM	> 100 µM	> 100 µM	> 100 µM	> 100 µM			65.8 µM	> 100 µM
Cc1n(Cc2ccc3ccccc3c2)c(Cl)c(Cl)[n+]1Cc1ccc2ccccc2c1	1.71 µM	3.24 µM	1.85 µM	4.67 µM	1.79 µM	3.81 µM	1.66 µM	3.16 µM	1.68 µM	3.19 µM	1.9 µM	7.3 µM	2.07 µM	4.13 µM	1.56 µM	4.57 µM	1.16 µM	2.66 µM	1.69 µM	3.2 µM
CC(=O)Oc1ccc(C2(c3ccc(OC(C)=O)cc3)C(=O)Nc3ccccc32)cc1	12.7 µM and 12.6 µM	> 62.7 µM and 51.7 µM	31.4 µM and 31.8 µM	> 100 µM	34.7 µM and 35.1 µM	> 100 µM			30.6 µM and 29.8 µM	> 100 µM	17.3 µM and 42.2 µM	> 87.3 µM	30.4 µM and 52.8 µM	96.9 µM and > 100 µM	24.6 µM and 26.8 µM	> 76.1 µM and 89.8 µM	17.2 µM and 23.8 µM	59 µM and > 79.9 µM	36.6 µM and 46.3 µM	> 100 µM
C=C(CNCCc1ccc(O)cc1)[C@@H]1CC[C@]2(CO)CC[C@]3(C)[C@H](CC[C@@H]4[C@@]5(C)CCC(N)C(C)(C)[C@@H]5CC[C@]43C)[C@@H]12 (some centres undefined)	1.48 µM	2.96 µM	1.59 µM	3.1 µM	1.73 µM	3.36 µM	1.08 µM	2.36 µM	1.52 µM	2.85 µM			1.79 µM	3.4 µM	1.44 µM	2.79 µM	1.24 µM	2.49 µM	1.51 µM	3.07 µM
CCCn1cnc2c(SCc3ccccc3)nc(N)nc21	> 100 µM	> 100 µM	89.3 µM	> 100 µM	> 100 µM	> 100 µM	24.4 µM	> 100 µM	> 100 µM	> 100 µM	56.8 µM	> 100 µM			19.7 µM	75.2 µM	> 100 µM	> 100 µM	42.2 µM	> 100 µM

Reference: PubChem BioAssay (NCI)
